From US9732081B2, “1,6-diazabicyclo [3,2,1] octan-7-one derivatives and their use in the treatment of bacterial infections” (WOCKHARDT LIMITED, priority 2012, dated 2017)
≈ marks a conversion by molar mass, not a printed value. Where two headings read alike, the source gives them in different places.

What was measured:
Type in all cases: cell-based
P. aeruginosa Ps 32 = experiment: Antibacterial activity (MIC, agar dilution per CLSI) against P. aeruginosa Ps 32; conditions: for MIC: Pseudomonas aeruginosa
Method: (§1) The biological activity of representative compounds according to the invention against various bacterial strains was investigated. In a typical study, overnight grown bacterial cultures were diluted appropriately and inoculated on the agar media containing doubling dilutions of the test compounds. Observation for growth or no growth was performed after 16-20 hours of incubation at 35±2° C. in ambient air. The overall procedure was performed as per Clinical and Laboratory Standards Institute (CLSI) recommendations (Clinical and Laboratory Standards Institute (CLSI), Performance Standards for Antimicrobial Susceptibility Testing, 20th Informational Supplement, M 100-S20, Volume 30, No. 1, 2010).
(§2) The activities are expressed as MICs (mcg/ml).

E. Coli M 50 = experiment: Antibacterial activity (MIC, agar dilution per CLSI) against E. Coli M 50; conditions: for MIC: Escherichia coli
Method: as §1, §2

E. Coli W 13353 = experiment: Antibacterial activity (MIC, agar dilution per CLSI) against E. Coli W 13353; conditions: for MIC: Escherichia coli
Method: as §1, §2

P. aeruginosa Ps 21 = experiment: Antibacterial activity (MIC, agar dilution per CLSI) against P. aeruginosa Ps 21; conditions: for MIC: Pseudomonas aeruginosa
Method: as §1, §2

E. Coli W 13352 = experiment: Antibacterial activity (MIC, agar dilution per CLSI) against E. Coli W 13352; conditions: for MIC: Escherichia coli
Method: as §1, §2

E. Coli H 483 = experiment: Antibacterial activity (MIC, agar dilution per CLSI) against E. Coli H 483; conditions: for MIC: Escherichia coli, read-out: MIC E. Coli H 483
Method: as §1, §2

E. Coli W 13351 = experiment: Antibacterial activity (MIC, agar dilution per CLSI) against E. Coli W 13351; conditions: for MIC: Escherichia coli
Method: as §1, §2

[1] = PS32, MDR P. aeruginosa strain, agar dilution, 16-20 hours at 35±2° C., read-out: MIC Ps 32
[2] = MDR Gram negative strain, Class C ESBL, 16-20 hours at 35±2° C., read-out: MIC E. Coli M 50
[3] = MDR Gram negative strain, Class A ESBL, 16-20 hours at 35±2° C., read-out: MIC E. Coli W 13353
[4] = PS21, MDR P. aeruginosa strain, agar dilution, 16-20 hours at 35±2° C., read-out: MIC Ps 21
[5] = MDR Gram negative strain, Class A ESBL, 16-20 hours at 35±2° C., read-out: MIC E. Coli W 13352
[6] = MDR Gram negative strain, Class C ESBL, agar dilution, 16-20 hours at 35±2° C.
[7] = MDR Gram negative strain, Class A ESBL, 16-20 hours at 35±2° C., read-out: MIC E. Coli W 13351
[8] = MDR P. aeruginosa strain, agar dilution, 16-20 hours at 35±2° C.
[9] = MDR Gram negative strain, Class C ESBL, 16-20 hours at 35±2° C.
[10] = MDR Gram negative strain, Class A ESBL, 16-20 hours at 35±2° C.

C[C@H]1[C@H](NC(=O)/C(=N\OC(C)(C)C(=O)O)c2csc(N)n2)C(=O)N1S(=O)(=O)O [Aztreonam, reference compound]
MIC (P. aeruginosa Ps 32; [1]): 8 µg/mL (≈ 18.4 µM) | MIC (E. Coli M 50; [2]): > 32 µg/mL | MIC (E. Coli W 13353; [3]): > 32 µg/mL | MIC (P. aeruginosa Ps 21; [4]): 8 µg/mL (≈ 18.4 µM) | MIC (E. Coli W 13352; [5]): > 32 µg/mL | MIC (E. Coli H 483; [6]): > 32 µg/mL | MIC (E. Coli W 13351; [7]): > 32 µg/mL

CC(C)(O/N=C(\C(=O)N[C@@H]1C(=O)N2C(C(=O)[O-])=C(C[n+]3ccccc3)CS[C@H]12)c1csc(N)n1)C(=O)O [Ceftazidime, reference compound]
MIC (P. aeruginosa Ps 32; [1]): > 32 µg/mL | MIC (E. Coli M 50; [2]): > 32 µg/mL | MIC (E. Coli W 13353; [3]): 32 µg/mL (≈ 58.5 µM) | MIC (P. aeruginosa Ps 21; [4]): > 32 µg/mL | MIC (E. Coli W 13352; [5]): > 32 µg/mL | MIC (E. Coli H 483; [6]): > 32 µg/mL | MIC (E. Coli W 13351; [7]): 32 µg/mL (≈ 58.5 µM)

O=C(NOC[C@@H]1CCCN1)[C@@H]1CC[C@@H]2CN1C(=O)N2OS(=O)(=O)O [Example 1, (2S,5R)-7-oxo-N-[(2S)-pyrrolidin-2-ylmethyloxy]-6-(sulfooxy)-1,6-diazabicyclo[3.2.1]octane-2-carboxamide]
MIC (P. aeruginosa Ps 32; [1]): > 32 µg/mL | MIC (E. Coli M 50; [2]): 0.5 µg/mL (≈ 1.37 µM) | MIC (E. Coli W 13353; [3]): 0.5 µg/mL (≈ 1.37 µM) | MIC (P. aeruginosa Ps 21; [4]): > 32 µg/mL | MIC (E. Coli W 13352; [5]): 1 µg/mL (≈ 2.74 µM) | MIC (E. Coli H 483; [6]): > 32 µg/mL | MIC (E. Coli W 13351; [7]): 1 µg/mL (≈ 2.74 µM)

O=C(NOC[C@H]1CCCN1)[C@@H]1CC[C@@H]2CN1C(=O)N2OS(=O)(=O)O [Example 2, (2S,5R)-7-oxo-N-[(2R)-pyrrolidin-2-ylmethyloxy]-6-(sulfooxy)-1,6-diazabicyclo[3.2.1]octane-2-carboxamide]
MIC (P. aeruginosa Ps 32; [1]): > 32 µg/mL | MIC (E. Coli M 50; [2]): 1 µg/mL (≈ 2.74 µM) | MIC (E. Coli W 13353; [3]): 1 µg/mL (≈ 2.74 µM) | MIC (P. aeruginosa Ps 21; [4]): > 32 µg/mL | MIC (E. Coli W 13352; [5]): 2 µg/mL (≈ 5.49 µM) | MIC (E. Coli H 483; [6]): > 32 µg/mL | MIC (E. Coli W 13351; [7]): 2 µg/mL (≈ 5.49 µM)

O=C(NOC[C@H]1CCNC1)[C@@H]1CC[C@@H]2CN1C(=O)N2OS(=O)(=O)O [Example 3, (2S,5R)-7-oxo-N-[(3S)-pyrrolidin-3-ylmethyloxy]-6-(sulfooxy)-1,6-diazabicyclo[3.2.1]octane-2-carboxamide]
MIC (P. aeruginosa Ps 32; [1]): > 32 µg/mL | MIC (E. Coli M 50; [2]): 8 µg/mL (≈ 22 µM) | MIC (E. Coli W 13353; [3]): 8 µg/mL (≈ 22 µM) | MIC (P. aeruginosa Ps 21; [4]): > 32 µg/mL | MIC (E. Coli W 13352; [5]): 16 µg/mL (≈ 43.9 µM) | MIC (E. Coli H 483; [6]): > 32 µg/mL | MIC (E. Coli W 13351; [7]): 16 µg/mL (≈ 43.9 µM)

O=C(NOC[C@@H]1CCNC1)[C@@H]1CC[C@@H]2CN1C(=O)N2OS(=O)(=O)O [Example 4, (2S,5R)-7-oxo-N-[(3R)-pyrrolidin-3-ylmethyloxy]-6-(sulfooxy)-1,6-diazabicyclo[3.2.1]octane-2-carboxamide]
MIC (P. aeruginosa Ps 32; [1]): > 32 µg/mL | MIC (E. Coli M 50; [2]): 8 µg/mL (≈ 22 µM) | MIC (E. Coli W 13353; [3]): 8 µg/mL (≈ 22 µM) | MIC (P. aeruginosa Ps 21; [4]): > 32 µg/mL | MIC (E. Coli W 13352; [5]): 8 µg/mL (≈ 22 µM) | MIC (E. Coli H 483; [6]): > 32 µg/mL | MIC (E. Coli W 13351; [7]): 8 µg/mL (≈ 22 µM)

O=C(NOCC1CCCCN1)[C@@H]1CC[C@@H]2CN1C(=O)N2OS(=O)(=O)O (stereo partly drawn) [Example 17, (2S,5R)-7-oxo-N-((2R,S)piperidin-2-ylmethyloxy)-6-(sulfooxy)-1,6-diazabicyclo[3.2.1]octane-2-carboxamide]
MIC Ps 32 (P. aeruginosa Ps 32; [8]): >32 µg/mL | MIC E. Coli M 50 (E. Coli M 50; [9]): 0.5 µg/mL (≈ 1.32 µM) | MIC E. Coli W 13353 (E. Coli W 13353; [10]): 0.5 µg/mL (≈ 1.32 µM) | MIC Ps 21 (P. aeruginosa Ps 21; [8]): >32 µg/mL | MIC E. Coli W 13352 (E. Coli W 13352; [10]): 1 µg/mL (≈ 2.64 µM) | MIC E. Coli H 483 (E. Coli H 483; [6]): >32 µg/mL | MIC E. Coli W 13351 (E. Coli W 13351; [10]): 1 µg/mL (≈ 2.64 µM)

O=C(NOC[C@@H]1CCCCN1)[C@@H]1CC[C@@H]2CN1C(=O)N2OS(=O)(=O)O [Example 18, (2S,5R)-7-oxo-N-((2S)piperidin-2-ylmethyloxy)-6-(sulfooxy)-1,6-diazabicyclo[3.2.1]octane-2-carboxamide]
MIC (P. aeruginosa Ps 32; PS32, read-out: MIC Ps 32): > 32 µg/mL | MIC E. Coli M 50 (E. Coli M 50; [9]): 1 µg/mL (≈ 2.64 µM) | MIC E. Coli W 13353 (E. Coli W 13353; [10]): 0.5 µg/mL (≈ 1.32 µM) | MIC (P. aeruginosa Ps 21; PS21, read-out: MIC Ps 21): > 32 µg/mL | MIC E. Coli W 13352 (E. Coli W 13352; [10]): 1 µg/mL (≈ 2.64 µM) | MIC (E. Coli H 483): > 32 µg/mL | MIC E. Coli W 13351 (E. Coli W 13351; [10]): 1 µg/mL (≈ 2.64 µM)

O=C(NOC[C@@H]1CCCCN1)[C@@H]1CC[C@@H]2CN1C(=O)N2OS(=O)(=O)O [Example 19, (2S,5R)-7-oxo-N-((2S)piperidin-2-ylmethyloxy)-6-(sulfooxy)-1,6-diazabicyclo[3.2.1]octane-2-carboxamide]
MIC Ps 32 (P. aeruginosa Ps 32; [8]): >32 µg/mL | MIC E. Coli M 50 (E. Coli M 50; [9]): 8 µg/mL (≈ 21.1 µM) | MIC E. Coli W 13353 (E. Coli W 13353; [10]): 4 µg/mL (≈ 10.6 µM) | MIC Ps 21 (P. aeruginosa Ps 21; [8]): >32 µg/mL | MIC E. Coli W 13352 (E. Coli W 13352; [10]): 16 µg/mL (≈ 42.3 µM) | MIC E. Coli H 483 (E. Coli H 483; [6]): >32 µg/mL | MIC E. Coli W 13351 (E. Coli W 13351; [10]): 8 µg/mL (≈ 21.1 µM)

O=C(NOC1CCNC1)[C@@H]1CC[C@@H]2CN1C(=O)N2OS(=O)(=O)O (stereo partly drawn) [Example 30, (2S,5R)-7-oxo-N-[(3R,S)-pyrrolidin-3-yloxy]-6-(sulfooxy)-1,6-diazabicyclo[3.2.1]octane-2-carboxamide]
MIC Ps 32 (P. aeruginosa Ps 32; [8]): >32 µg/mL | MIC E. Coli M 50 (E. Coli M 50; [9]): 4 µg/mL (≈ 11.4 µM) | MIC E. Coli W 13353 (E. Coli W 13353; [10]): 4 µg/mL (≈ 11.4 µM) | MIC Ps 21 (P. aeruginosa Ps 21; [8]): >32 µg/mL | MIC E. Coli W 13352 (E. Coli W 13352; [10]): 8 µg/mL (≈ 22.8 µM) | MIC E. Coli H 483 (E. Coli H 483; [6]): >32 µg/mL | MIC E. Coli W 13351 (E. Coli W 13351; [10]): 8 µg/mL (≈ 22.8 µM)

C[C@@H](O)[C@H]1C(=O)N2C(C(=O)O)=C(SCCN=CN)C[C@H]12 [Imipenem, reference compound]
MIC (P. aeruginosa Ps 32; [1]): > 32 µg/mL | MIC (E. Coli M 50; [2]): 0.5 µg/mL (≈ 1.67 µM) | MIC (E. Coli W 13353; [3]): 0.25 µg/mL (≈ 0.835 µM) | MIC (P. aeruginosa Ps 21; [4]): > 32 µg/mL | MIC (E. Coli W 13352; [5]): 0.25 µg/mL (≈ 0.835 µM) | MIC (E. Coli H 483; [6]): 1 µg/mL (≈ 3.34 µM) | MIC (E. Coli W 13351; [7]): 0.25 µg/mL (≈ 0.835 µM)

CN(C)c1cc(NC(=O)CNC(C)(C)C)c(O)c2c1C[C@H]1C[C@H]3[C@H](N(C)C)C(O)=C(C(N)=O)C(=O)[C@@]3(O)C(O)=C1C2=O [Tigecyclin, Tigecycline, reference compound]
MIC (P. aeruginosa Ps 32; PS32, read-out: MIC Ps 32): 16 µg/mL (≈ 27.3 µM) | MIC (E. Coli M 50; read-out: MIC E. Coli M 50, MDR Gram negative strain, Class C ESBL, 16-20 hours at 35±2° C.): 0.5 µg/mL (≈ 0.854 µM) | MIC (E. Coli W 13353; read-out: MIC E. Coli W 13353, MDR Gram negative strain, Class A ESBL, 16-20 hours at 35±2° C.): 1 µg/mL (≈ 1.71 µM) | MIC (P. aeruginosa Ps 21; PS21, read-out: MIC Ps 21): 16 µg/mL (≈ 27.3 µM) | MIC (E. Coli W 13352; read-out: MIC E. Coli W 13352, MDR Gram negative strain, Class A ESBL, 16-20 hours at 35±2° C.): 0.25 µg/mL (≈ 0.427 µM) | MIC (E. Coli H 483): 0.5 µg/mL (≈ 0.854 µM) | MIC (E. Coli W 13351; read-out: MIC E. Coli W 13351, MDR Gram negative strain, Class A ESBL, 16-20 hours at 35±2° C.): 1 µg/mL (≈ 1.71 µM)
